The target in one assay is T1, daf-4 ECD (Caenorhabditis elegans, UniProt P50488).
T1 construct: 1 includes additional portions on the N and C terminus; made in house; host or cells: transfected DHFR(-) CHO cell line PJ511.9.8, purified from conditioned medium
T1 sequence (P50488 with tags, fused parts or gaps): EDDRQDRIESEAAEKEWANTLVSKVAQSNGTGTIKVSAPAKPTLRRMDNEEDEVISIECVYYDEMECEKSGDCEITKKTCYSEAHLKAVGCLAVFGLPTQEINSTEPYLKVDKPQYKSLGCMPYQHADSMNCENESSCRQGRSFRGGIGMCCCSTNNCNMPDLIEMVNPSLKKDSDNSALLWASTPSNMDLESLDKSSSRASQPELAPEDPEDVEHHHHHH
As to the kind of experiment: BMP binding to purified daf-4 ECD (ligand blot, Scatchard analysis). Further details: species or system C. elegans.

The test system of assay [1] is BMP-7 induced and basal alkaline phosphatase activity in ROS cells (rat Osteosarcoma 17/2.8). As to the kind of experiment: ROS cell based alkaline phosphatase assay. The settings on record: for IC50: peptide together with BMP-7 (1.33 nM), ROS cells, 2 days, read-out: peptide concentration giving 50% inhibition of cellular responsiveness to BMP-7. The procedure:
ROS Cell Based Alkaline Phosphatase Assays: BMP-7 and test agents that bind BMP-7 receptors were analyzed by in vitro bioassay. This assay defines the role of these test agents at the receptor-binding site. It is believed that some of the test agents can effectively interact with receptors and inhibit BMP-7 induced target cell responsiveness, thereby acting as functional antagonists. Alternatively, these agents may mimic BMP-7 functions inducing alkaline phosphatase activity in ROS cells, thus acting as functional agonists. An assay procedure as described by Maliakal, J. C., et al., Growth Factors 11, 227-234, (1994) determined the biological activities of BMP-7 peptides. In a typical experiment, rat Osteosarcoma (17/2.8) cells were plated in 96 well plates (3.0×10^4 cells/well) and incubated overnight at 37 C in 5-6% CO2 incubator. Next day, the plates were examined to make sure that cells are healthy & confluent. Cells were treated with increasing concentrations of BMP-7 standard (1-10,000 ng/ml) or test agents (0.02-200 μM) or appropriate concentrations of test agent alone or with BMP-7 standard prepared in medium containing 1% FBS and incubated for 2 days at 37 C in 5-6% CO2 incubator. The cellular content of alkaline phosphatase activity was determined by the method of Reddi, A. H. & Huggins, C. B. Proc. Natl. Acad. Sci. USA 69, 1601-1605 (1972). Enzyme estimations were routinely carried out in 96 well plates. Following removal of culture medium, cells were washed with pre-warmed PBS (150 μl) and further incubated in 100 μl of pre-warmed 1% Triton X-100 for 30 minutes at 37 C. Plates were centrifuged for 10 minutes at full speed, and recovered samples (each 15 μl) were assayed for enzyme activity by adding 90 μl p-nitrophenyl phosphate (Sigma, St. Louis, Mo.) as a substrate in 0.05 M glycine-NaOH buffer, pH 9.3 and incubating for 20 minutes at 37 C. The reaction was stopped by adding 75 ul of 0.2 N NaOH/well and absorbance at 405/490 nm is measured on a Dynatech MR 700 plate reader (Dynatech Laboratories, U.K.). Results are expressed as concentration of peptide/small molecule inhibitor (with antagonist activity) required to give 50% inhibition of maximum response to BMP-7 standard. The activities of test agents that stimulate cell responsiveness (with agonist activity), are expressed relative to BMP-7 standard.

The subject of assay [2] is BMP-7 receptor-enriched plasma membrane fraction of ROS cells. The experiment in a line: Radio-ligand receptor assay (displacement of 125I-labeled BMP-7). Type of assay: binding, rat. The procedure:
Radio-ligand receptor Assay: The receptor-binding activities of various BMP ligands (New York Public Health Labs, Albany, N.Y.) were determined by an equilibrium displacement binding isotherm assay using BMP-7 receptor-enriched plasma membrane fraction of ROS cells (ATCC 17-2.8) and ^125I-labeled BMP-7 (NEN, Billerica, Mass.) as ligand. Purified BMP-7 was radio-iodinated BMP-7 to a specific activity of 70-78 uCi/ug by a modified procedure of lactoperoxidase method (Schneyer, A. L., et al., Endocrinology 119, 1446-1453 (1986)). The percent bindability of radioiodinated BMP-7 to excess receptor is 30-37%. Receptors from ROS cells are obtained by a procedure previously described (Dattatreyamurty, B., et al., (1986) J. Biol. Chem. 261.). […] In a typical assay, fixed amounts of ^125I-labeled sol. BMP-7 (−80.000 cpm) were incubated with a fixed amount of receptor-enriched plasma membrane fraction in the presence (5 ug. for non-specific binding) or absence of excess unlabeled BMP-7 (for total binding). Displacement curves were generated with increasing concentrations of BMP-7 standard preparation (5-2000 ng). The assay incubations were carried out in a reaction volume of 300 μl with shaking for 22 hrs. at 4° C. Bound and unbound ^125I-labeled BMP-7 were separated by centrifugation (30,500×g. 30 minutes). The supernatants were aspirated and pellets washed before counting in a gamma counter (Packard Instr. Downers Grove, Ill.). The concentration of test agent required to give 50% inhibition of total specific binding of ^125I-labeled BMP-7 ^(ED50^) was calculated from competitive data.
Background: Loss of bound radioactivity is the signal in a displacement assay; it reports binding, not function.

The next assay concerns the target T2, ECD of daf-4 receptor (Caenorhabditis elegans, UniProt P50488).
T2 construct: 1 includes additional portions on the N and C terminus; made in house; host or cells: transfected DHFR(-) CHO cell line PJ511.9.8, purified from conditioned medium
T2 sequence (P50488 with tags, fused parts or gaps): T1 sequence (P50488 with tags, fused parts or gaps)
The experiment in a line: Type II receptor-based HTS rapid solid-phase assay. The format is binding, C. elegans. The settings on record: ECD immobilized on PVDF membrane, 18 h, room temperature. The text has this:
Preparation of type II Receptor ECD: Highly purified extracellular domain (ECD) of the type II receptor daf-4 was used in this assay. The ECD of the daf-4 receptor was cloned and vectors (pCMV5 expression vectors, daf-4 sequence including the mammalian consensus start site and the hexa-histidine sequence tag) are constructed for the expression of this molecule in mammalian cells. In this construct, the ECD has been linked to a hexa-Histadine sequence tag for subsequent purification and detection. The transfected DHFR(−) CHO cell line PJ511.9.8 has been used for the daf-4 expression as outlined below. This cloning method can also be utilized with other bone morphogenetic proteins.
Purification of daf-4 ECD: A purification protocol to process large volumes of conditioned media (3.5 L/week) was developed. The procedure involves initial isolation of daf-4 ECD by using Talon (Pharmacia Tech.) Immobilized metal affinity column. As daf-4 ECD protein is linked to a hexa-His sequence, the protein is bound to the metal affinity column and is subsequently eluted by imidazoic ([…]) containing buffer. […] The purified preparation was analyzed by reversed phase HPLC. […]
HTS assay procedure: BMP-7 binding activity was determined by a rapid solid-phase assay using ^125I-labeled BMP-7 as ligand and highly purified ECD of daf-4 as type II receptor. […]

Where [3] appears, read: lower peptide concentrations (0.6-60 μM).

Bridges are numbered along the chain shown (N, C = ends). Where no end group is shown, it is not given here.

Description for daf-4 ECD: A novel ligand-blot technique was developed to evaluate the binding of BMP-7 to the purified daf-4 ECD.

As for BMP-4: bone morphogenetic protein, in the assay with daf-4 ECD, the “binding to extracellular domain of daf-4” value is “readily binds”.
As to “CCFINPETVCC, SEQ I.D NO. 6; cyclized (disulfide (positions not given here); also: cyclized (mode not given here); listed as Homo sapiens) [Peptide H-2C]”, the “effect on basal cell responsiveness (basal alkaline phosphatase activity)” value (from here on “effect on basal cell responsiveness”) in assay [1] (peptide alone) is “inhibiting”. Further, the “behaviour of peptide on BMP-7 induced cell responsiveness” value in assay [1] (peptide together with BMP-7) is recorded as “antagonist”. For the same substance, the IC50 in assay [1] was determined as 5 µM. Also, the “effect on binding of 125I-labeled BMP-7 to the receptor” value in assay [2] (peptide at 8 μM) was “potentiated”.
As for “CELYVSFRDLGWQDWIIAPEGYAAYC, SEQ I.D NO. 3; BMP-7 finger 1 peptide with cyclized ends (disulfide 1-26 (inferred); listed as Homo sapiens) [Peptide F1-1]”, in assay [1] (peptide alone), the “peptide concentration effective to inhibit basal cellular responsiveness” value fell in the range of 52 to 260 µM. Besides, the “behaviour of peptide on BMP-7 induced cell responsiveness” value in assay [1] (peptide together with BMP-7) was “antagonist”. The IC50 in assay [1] amounted to 20 µM.
Take “CFRDLGWQDWIIAPC, SEQ I.D NO. 4; 15 residue peptide cyclized at the ends (disulfide 1-15 (inferred); listed as Homo sapiens) [Peptide F1-2]”: the “effect on basal cell responsiveness” value in assay [1] (peptide alone) is “weakly inhibiting”. Also, in assay [1] (peptide together with BMP-7), the “behaviour of peptide on BMP-7 induced cell responsiveness” value is recorded as “antagonist”. Further, the IC50 in assay [1] stood at 10 µM. The “activity in radioligand receptor assay” value in assay [2] is “relatively weak activity”. For the same substance, the “concentration required to inhibit the binding of 125I-labeled BMP-7 to the receptor” value in assay [2] (ROS cell plasma membranes) was found to be 179 µM.
On to “CLNAISVLYFDDSSNVILKKYRNMVVRC, SEQ ID NO. 10; cyclized (disulfide 1-28 (inferred); listed as Homo sapiens) [Peptide F2-1]”, for which the “effect on basal cell responsiveness” value in assay [1] (peptide alone) is on record as “effectively inhibited”. Further, in assay [1] (peptide together with BMP-7), the “behaviour of peptide on BMP-7 induced cell responsiveness” value was “effectively inhibited”. Also, in assay [1], the IC50 stood at 8 µM.
Take “CYFDDSSNVIC SEQ I.D NO. 7; 9 residues, ends cyclized (disulfide 1-11 (inferred); listed as Homo sapiens) [Peptide F2-2]”: the “effect on responsiveness to BMP-7 at higher concentrations” value in assay [1] (higher peptide concentrations (above 0.6-60 μM)) was “inhibited”. In assay [1] (setting [3]), the “behaviour of peptide on BMP-7 induced cell responsiveness at lower concentrations” value is given as “weak agonist” and the “potentiation of BMP-7 induced cell responsiveness” value amounted to 20%.
As to “CYFDDSSNVICKKYRS, SEQ I.D NO. 9; 11 residue loop with 5 residue C-terminal extension (disulfide 1-11; listed as Homo sapiens) [Peptide F2-3]”, the “percent increase in BMP-7 response (relative to the absence of peptide)” value in assay [1] (peptide 0.01 μM, sub-maximal BMP-7, P<0.001) stood at 53%; in assay [1] (peptide 0.1 μM, sub-maximal BMP-7, P=0.007) it was 54%; in assay [1] (peptide 1 μM, sub-maximal BMP-7, P=0.01), 48%. The “effect on basal cell responsiveness” value in assay [1] (peptide alone) is reported as “no significant effect”. Further, the “behaviour of peptide on BMP-7 induced cell responsiveness” value in assay [1] (peptide together with BMP-7) was “agonistic”. Besides, the “inhibition of 125I-labeled BMP-7 binding to the ECD of daf-4 receptor” value in the assay with ECD of daf-4 receptor was determined as 75%.
As to “F2-2c: CIVNSSDDFYC SEQ I.D NO. 8; control peptide, residues of F2-2 in reverse order (disulfide 1-11 (inferred); listed as Homo sapiens) [Peptide F2-2c, reference compound]”, the “effect on basal cell responsiveness” value in assay [1] (peptide alone) is reported as “no effect”. Further, the “behaviour of peptide on BMP-7 induced cell responsiveness” value in assay [1] (peptide together with BMP-7) was “no effect”. The “activity in radioligand receptor assay” value in assay [2] was “inactive”.
Regarding “H-1: CAFPLNSYMNATNHAIVQTLVHFINPETVPKC SEQ ID NO 5; heel peptide, cyclized (disulfide 1-32 (inferred); listed as Homo sapiens) [Peptide H-1]”, in assay [1] (peptide alone), the “effect on basal cell responsiveness” value is “effective only at very high concentrations”. Moreover, in assay [1] (peptide together with BMP-7), the “behaviour of peptide on BMP-7 induced cell responsiveness” value is recorded as “weak antagonist” and the “concentrations required to inhibit the BMP-7 induced cell response” value lay within 44 to 220 µM.

The values are drawn from US20110081662A1, “SCREENING METHODS FOR BONE MORPHOGENETIC MIMETICS” (THRASOS THERAPEUTICS, INC., priority 2000, published 2011).
